The results in this text go back to article PMC10641818, “Development of First-in-Class Dual Sirt2/HDAC6 Inhibitors as Molecular Tools for Dual Inhibition of Tubulin Deacetylation” (Journal of Medicinal Chemistry, 2023).

Structures are written as SMILES.

The target of one assay is T1, HDAC6 (Homo sapiens, UniProt Q9UBN7).
T1 sequence (Q9UBN7 1-1215): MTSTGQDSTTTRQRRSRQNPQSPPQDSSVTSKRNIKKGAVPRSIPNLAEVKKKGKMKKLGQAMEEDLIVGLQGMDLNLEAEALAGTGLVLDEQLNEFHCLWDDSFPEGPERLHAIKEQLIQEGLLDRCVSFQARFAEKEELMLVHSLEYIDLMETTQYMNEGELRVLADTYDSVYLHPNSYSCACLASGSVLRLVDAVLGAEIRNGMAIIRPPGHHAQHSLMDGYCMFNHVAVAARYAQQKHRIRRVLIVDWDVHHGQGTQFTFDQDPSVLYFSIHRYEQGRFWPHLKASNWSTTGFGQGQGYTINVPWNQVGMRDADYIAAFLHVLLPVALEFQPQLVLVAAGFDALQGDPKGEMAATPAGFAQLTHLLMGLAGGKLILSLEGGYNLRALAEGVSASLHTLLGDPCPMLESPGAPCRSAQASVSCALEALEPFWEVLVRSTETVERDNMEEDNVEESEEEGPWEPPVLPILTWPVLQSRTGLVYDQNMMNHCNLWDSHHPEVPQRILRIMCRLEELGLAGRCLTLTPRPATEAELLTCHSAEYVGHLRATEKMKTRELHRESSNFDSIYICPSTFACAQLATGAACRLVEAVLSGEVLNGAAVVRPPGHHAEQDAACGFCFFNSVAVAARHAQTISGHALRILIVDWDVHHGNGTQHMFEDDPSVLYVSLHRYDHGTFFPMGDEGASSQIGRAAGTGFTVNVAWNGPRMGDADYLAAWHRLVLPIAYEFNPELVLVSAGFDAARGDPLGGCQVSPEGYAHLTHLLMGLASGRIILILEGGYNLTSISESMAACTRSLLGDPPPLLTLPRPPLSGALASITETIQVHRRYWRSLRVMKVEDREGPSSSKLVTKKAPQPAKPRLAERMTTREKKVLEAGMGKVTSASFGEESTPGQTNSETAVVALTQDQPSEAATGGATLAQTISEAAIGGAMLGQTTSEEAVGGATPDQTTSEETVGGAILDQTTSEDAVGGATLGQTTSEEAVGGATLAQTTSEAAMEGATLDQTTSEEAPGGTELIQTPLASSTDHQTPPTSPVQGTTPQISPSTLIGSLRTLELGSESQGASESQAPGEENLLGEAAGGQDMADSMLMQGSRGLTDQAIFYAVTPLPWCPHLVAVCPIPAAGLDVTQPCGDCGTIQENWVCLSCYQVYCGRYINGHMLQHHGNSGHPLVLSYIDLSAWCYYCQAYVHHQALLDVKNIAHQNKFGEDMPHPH
Put plainly: HDAC6 in vitro deacetylation assay (ZMAL). The format is biochemical. Also noted: purchased BPS Bioscience 50006. The following applies: deacetylation, mean ± SD.

In assay [1] the test system is PC-3M-luc prostate cancer cells. Put plainly: Cell viability assay (MTS) PC-3M-luc. The following applies: 72 h; for PC-3M-luc cellular effect: @ 50 μM. The assay is classed as cell-based. How it is done: (§1) Cell viability assays of HGC27 and PC-3M-luc cells were performed by using the Celltiter 96 Aqueous Nonradioactive Proliferation Assay (Promega). Cells were seeded in sterile 96-well plates at a density of 2000 cells per well and incubated overnight at 37 °C and 5% CO2. Compound or vehicle were added to a final concentration of 0.5% DMSO. […] Cells were seeded at densities of 10^4 cells/well for W1 cells or 2 × 10^3 cells/well for MCF-7 cells. Tests were performed in 96-well plates (Sarstedt AG, Nümbrecht, Germany). After incubation overnight, cells were supplemented with half logarithmic dilution series of the indicated compounds and DPBS (PAN Biotech GmbH, Aidenbach, Germany) as control. Then 72 h after addition of cytostatic treatment, the MTT solution (20 μL, 5 mg/mL) was added into the wells for 1 h at 37 °C and 5% CO2 until formazan crystals were formed. The supernatant was removed, and the cells were dissolved in 200 μL of DMSO. Absorption was analyzed at 570 nm, with background subtraction at 690 nm, using a plate reader (Thermomultiscan EX, Thermo, Schwerte, Germany). Cell viability was then determined by nonlinear regression and a four-parameter logistic equation with variable hill slope. […] The significance of the difference of the effects of 33 and 4 + 57 was determined by using an unpaired, two-tailed t test with Welch’s correction, implemented in GraphPad Prism 8.4.0 (GraphPad, USA). Statistical significance was accepted if p < 0.05. Asterisks indicate *p < 0.05, **p < 0.01.

Another assay deals with T2, Sirt1 (Homo sapiens, UniProt Q96EB6).
T2 construct: the respective sirtuin (Sirt1_134–747, Sirt2_56–356, or Sirt3_118–395) was mixed with; made in house; host or cells: Escherichia coli BL21 Star (DE3)
T2 sequence (Q96EB6 134-747): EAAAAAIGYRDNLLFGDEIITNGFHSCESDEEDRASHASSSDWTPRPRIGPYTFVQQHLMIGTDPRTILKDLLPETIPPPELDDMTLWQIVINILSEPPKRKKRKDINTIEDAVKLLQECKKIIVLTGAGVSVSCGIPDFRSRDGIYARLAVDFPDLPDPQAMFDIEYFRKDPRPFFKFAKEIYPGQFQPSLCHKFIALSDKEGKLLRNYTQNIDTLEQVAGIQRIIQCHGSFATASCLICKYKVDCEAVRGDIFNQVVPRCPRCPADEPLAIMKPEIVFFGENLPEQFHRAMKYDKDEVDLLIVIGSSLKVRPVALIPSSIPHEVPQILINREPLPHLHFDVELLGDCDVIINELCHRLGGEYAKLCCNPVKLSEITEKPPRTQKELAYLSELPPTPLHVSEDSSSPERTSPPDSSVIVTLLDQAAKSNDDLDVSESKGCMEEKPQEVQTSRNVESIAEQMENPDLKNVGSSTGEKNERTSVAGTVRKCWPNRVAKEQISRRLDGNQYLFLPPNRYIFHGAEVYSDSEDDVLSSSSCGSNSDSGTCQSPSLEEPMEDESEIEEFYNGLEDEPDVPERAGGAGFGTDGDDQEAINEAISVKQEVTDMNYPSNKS
The experiment in a line: Sirt1 in vitro deacetylation assay (ZMAL). The assay is classed as biochemical.

For another assay, the system named is W1 ovarian cancer cells. The experiment in a line: Cell viability assay (MTT) W1. The format is cell-based. The following applies: 72 h; for W1 cellular effect: @ 50 μM. On the procedure:
as §1

Assay [2] deals with MCF-7 breast cancer cells. The experiment in a line: Cell viability assay (MTT) MCF-7. The following applies: 72 h; for MCF-7 cellular effect: @ 50 μM. The assay is classed as cell-based. How it is done: as §1
The next assay addresses T3, Sirt3 (Homo sapiens, UniProt Q9NTG7).
T3 construct: the respective sirtuin (Sirt1_134–747, Sirt2_56–356, or Sirt3_118–395) was mixed with; made in house; host or cells: Escherichia coli BL21 Star (DE3)
T3 sequence (Q9NTG7 118-395): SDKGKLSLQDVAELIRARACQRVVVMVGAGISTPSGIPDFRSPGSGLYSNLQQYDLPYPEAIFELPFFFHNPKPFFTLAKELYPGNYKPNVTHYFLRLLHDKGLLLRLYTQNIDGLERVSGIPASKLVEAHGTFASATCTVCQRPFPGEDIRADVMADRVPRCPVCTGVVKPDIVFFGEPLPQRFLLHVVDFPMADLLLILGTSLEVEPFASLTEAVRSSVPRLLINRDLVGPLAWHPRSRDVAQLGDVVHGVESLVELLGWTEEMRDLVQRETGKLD
The experiment in a line: Sirt3 in vitro deacetylation assay (ZMAL). The format is biochemical.

Another assay deals with T4, Sirt2 (demyristoylation) (Homo sapiens, UniProt Q8IXJ6).
T4 construct: the respective sirtuin (Sirt1_134–747, Sirt2_56–356, or Sirt3_118–395) was mixed with; made in house; host or cells: Escherichia coli BL21 Star (DE3)
T4 sequence (Q8IXJ6 56-356): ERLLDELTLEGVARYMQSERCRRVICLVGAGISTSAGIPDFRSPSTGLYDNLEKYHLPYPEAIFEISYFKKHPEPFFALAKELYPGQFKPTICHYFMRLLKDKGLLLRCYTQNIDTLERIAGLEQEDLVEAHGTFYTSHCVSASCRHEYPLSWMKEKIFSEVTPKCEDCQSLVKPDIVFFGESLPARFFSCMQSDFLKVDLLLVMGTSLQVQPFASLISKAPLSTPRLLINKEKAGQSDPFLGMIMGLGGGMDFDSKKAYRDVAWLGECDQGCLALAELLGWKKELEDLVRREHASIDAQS
Put plainly: Discontinuous Sirt2 demyristoylation assay (ZMML substrate). The following applies: for IC50: mean ± SD. The format is biochemical.

The target of the next assay is T5, HDAC1 (Homo sapiens, UniProt Q13547).
T5 construct: purchased BPS Bioscience 50051
Put plainly: HDAC1 in vitro deacetylation assay (ZMAL). The assay is classed as biochemical. The note with it: deacetylation, mean ± SD.

Assay [3] deals with HGC27 gastric carcinoma cells. Put plainly: Cell viability assay (MTS) HGC27. The following applies: 72 h; for HGC27 cellular effect: @ 50 μM. The assay is classed as cell-based. How it is done: as §1
In assay [4] the target is T6, Sirt2 (Homo sapiens, UniProt Q8IXJ6).
T6 construct: the respective sirtuin (Sirt1_134–747, Sirt2_56–356, or Sirt3_118–395) was mixed with; made in house; host or cells: Escherichia coli BL21 Star (DE3)
T6 sequence (Q8IXJ6 56-356): T4 sequence (Q8IXJ6 56-356)
The experiment in a line: Sirt2 in vitro deacetylation assay (ZMAL, trypsin-based fluorescence). The format is biochemical. The following applies: for IC50: deacetylation, mean ± SD.

Assay [5] deals with T7, Sirt2 (Homo sapiens, UniProt Q8IXJ6).
T7 construct: expressed in transfected cells; host or cells: HEK293T
T7 sequence (Q8IXJ6 1-389): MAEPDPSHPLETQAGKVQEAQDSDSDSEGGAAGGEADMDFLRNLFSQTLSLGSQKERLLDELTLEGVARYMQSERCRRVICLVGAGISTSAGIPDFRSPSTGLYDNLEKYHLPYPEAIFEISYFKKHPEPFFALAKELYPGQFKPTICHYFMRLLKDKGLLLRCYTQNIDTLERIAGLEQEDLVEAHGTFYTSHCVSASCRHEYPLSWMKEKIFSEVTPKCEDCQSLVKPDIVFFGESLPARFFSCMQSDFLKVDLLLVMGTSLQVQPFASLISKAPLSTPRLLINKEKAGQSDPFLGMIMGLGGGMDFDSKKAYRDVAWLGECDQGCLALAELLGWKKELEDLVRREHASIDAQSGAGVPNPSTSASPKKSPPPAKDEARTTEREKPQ
Put plainly: Cell-based NanoBRET assay for Sirt2 target engagement in HEK293T cells. The following applies: tracer SirReal-TAMRA 2 μM. In general terms: BRET reads energy transfer from a luciferase to a nearby fluorophore.

T5 sequence (Q13547 whole entry): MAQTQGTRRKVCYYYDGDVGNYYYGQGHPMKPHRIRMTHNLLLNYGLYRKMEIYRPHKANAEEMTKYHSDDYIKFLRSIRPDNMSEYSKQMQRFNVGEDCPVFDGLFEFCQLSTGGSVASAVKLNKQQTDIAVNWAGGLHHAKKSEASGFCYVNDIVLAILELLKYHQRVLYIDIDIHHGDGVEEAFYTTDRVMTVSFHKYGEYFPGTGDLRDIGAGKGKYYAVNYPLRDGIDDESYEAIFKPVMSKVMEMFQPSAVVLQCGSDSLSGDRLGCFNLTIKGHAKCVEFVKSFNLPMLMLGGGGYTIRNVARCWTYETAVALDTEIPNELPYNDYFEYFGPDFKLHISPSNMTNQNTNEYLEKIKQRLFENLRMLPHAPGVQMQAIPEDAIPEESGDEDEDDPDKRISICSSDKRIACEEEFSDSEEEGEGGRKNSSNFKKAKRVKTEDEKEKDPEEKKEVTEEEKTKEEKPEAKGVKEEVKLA

Turning to `Cc1cc(C)nc(SCC(=O)Nc2ncc(Cc3cccc(OCc4cn(CCOCCOCCOCCOCCC(=O)Nc5ccc(C(=O)NCc6ccc(C(=O)NO)cc6)cc5)nn4)c3)s2)n1` [Compound 44, 4-((4-(1-(4-((3-((2-(2-((4,6-Dimethylpyrimidin-2-yl)thio)acetamido)thiazol-5-yl)methyl)phenoxy)methyl)-1H-1,2,3-triazol-1-yl)-3,6,9,12-tetraoxapentadecan-15-amido)benzamido)methyl)-N-hydroxybenzamide], the IC50 against HDAC6 was determined as 0.0096 ± 0.0003 µM; on Sirt2 (demyristoylation), 34 ± 2 µM; against HDAC1, 0.6 ± 0.03 µM; against Sirt2 [4] it was 0.48 ± 0.04 µM. Moreover, the PC-3M-luc cellular effect entry in [1] was “ni ^b (ni = no inhibition (cellular effect <20% @ 50 μM))”. Also, the inhibition at 20 µM on Sirt1 and at Sirt3 was less than 15% in each case. Moreover, the W1 cellular effect entry in the assay with W1 ovarian cancer cells is recorded as “ni ^b (ni = no inhibition (cellular effect <20% @ 50 μM))”. In addition, the MCF-7 cellular effect result in [2] is recorded as “ni ^b (ni = no inhibition (cellular effect <20% @ 50 μM))”. Moreover, the HGC27 cellular effect result in assay [3] is given as “ni ^b (ni = no inhibition (cellular effect <20% @ 50 μM))”.

Take `Cc1cc(C)nc(SCC(=O)Nc2ncc(Cc3cccc(OCc4cn(CCOCCOCCOCCOCCOCCOCCOCCOCCOCCOCCC(=O)Nc5ccc(C(=O)NCc6ccc(C(=O)NO)cc6)cc5)nn4)c3)s2)n1` [Compound 45, 4-((4-(1-(4-((3-((2-(2-((4,6-Dimethylpyrimidin-2-yl)thio)acetamido)thiazol-5-yl)methyl)phenoxy)methyl)-1H-1,2,3-triazol-1-yl)-3,6,9,12,15,18,21,24,27,30-decaoxatritriacontan-33-amido)benzamido)methyl)-N-hydroxybenzamide]: the IC50 at HDAC6 was 0.017 ± 0.001 µM; on Sirt2 (demyristoylation) it was 2.8 ± 0.6 µM; on HDAC1, 0.46 ± 0.05 µM; against Sirt2 [4], 0.54 ± 0.01 µM. Further, in assay [1], the PC-3M-luc cellular effect result is on record as “ni ^b (ni = no inhibition (cellular effect <20% @ 50 μM))”. For the same compound, the inhibition at 20 µM against Sirt1 and at Sirt3 was less than 15% each time. The W1 cellular effect result in the assay with W1 ovarian cancer cells is given as “ni ^b (ni = no inhibition (cellular effect <20% @ 50 μM))”. The MCF-7 cellular effect result in assay [2] is on record as “ni ^b (ni = no inhibition (cellular effect <20% @ 50 μM))”. Also, the HGC27 cellular effect result in [3] is reported as “ni ^b (ni = no inhibition (cellular effect <20% @ 50 μM))”.

Consider `CCCCC(=O)N(CCCC)Cc1ccc(C(=O)NO)cc1` [Compound 57, 4-((N-Butylpentanamido)methyl)-N-hydroxybenzamide], for which the EC50 in assay [1] (PC-3M-luc, read-out: PC-3M-luc cell viability EC50, MTS, mean ± SD) is 30.1 ± 2.3 µM; with W1 ovarian cancer cells (MTT, mean ± SD) it was 33.6 ± 4.1 µM; in assay [2] (Homo sapiens, MCF7, MTT, mean ± SD), 16.3 ± 5.9 µM; in assay [3] (Homo sapiens, HGC-27, MTS, mean ± SD), 21.1 ± 1.6 µM. Further, on Sirt2 (demyristoylation) (@ 5 μM, read-out: Sirt2 (demyristoylation) percentual inhibition), the inhibition at 5 µM is less than 15%. In addition, the “Cellular Sirt2 binding (NanoBRET)” value at Sirt2 [5] is given as “no Sirt2 binding”. Moreover, at Sirt2 [4] (@ 20 μM), the inhibition at 20 µM is less than 15%. For the same compound, at Sirt2 [4] (supplementary CSV, column IC50 Sirt2 [µM]), the “Sirt2 inhibition” value is “n.i”.

The IC50 is the concentration that gives 50% inhibition. The low end stands for inhibition by little substance, the high end for a need for much substance. The inhibition is how much of the control response was suppressed. As usually defined, the EC50 is the concentration needed to bring the measured effect to its halfway point.
